Read-outs that look alike come from different tables or passages of the source.
Assays:
Type in all cases: biochemical, mung bean
[1] = molecular target: recombinant GlcNAc-α1,3-fucosyl transferase (Vigna radiata, UniProt Q9ST51); experiment: Assay for GlcNAc-α1,3-fucosyl transferase activity (GnGn peptide and GDP-L-[U-14C]-fucose); conditions: for Rel. Activity: acceptor substrate, standard test conditions; for Km: acceptor or donor substrate, unit inferred, read-out: apparent Km-values
[2] = tested on: GlcNAc-α1,3-fucosyl transferase activity; experiment: Enzyme activity of insect cells transfected with the α1,3-fucosyl transferase gene versus negative control
Description: The encoding region of the assumed GlcNAc-α1,3-fucosyl transferase including cytoplasmatic and transmembrane region was amplified with the forward primer 5′-[…]-3′ (SEQ ID NO: 16) and reverse primer 5′-[…]-3′ (SEQ ID NO: 17) by means of the Expand High Fidelity PCR System of Boehringer Mannheim. The PCR product was double-digested with PstI and BamHI and subcloned in alkaline phosphatase-treated baculovirus transfer vector pVL1393 which previously had been digested with PstI and BamHI. To ensure a homologous recombination, the transfer vector was co-transfected with Baculo Gold viral DNA (PharMingen, Sand Diego, Calif.) in Sf9 insect cells in IPL-41 Medium with lipofectin. After an incubation of 5 days at 27° C., various volumes of the supernatant with the recombinant virus were used for infecting the Sf21 insect cells. After an incubation of 4 days at 27° C. in IPL-41 Medium with 5% FCS, the […] cells were harvested and washed 2× with phosphate-buffered saline solution. The cells were resuspended in 25 mM Tris HCl buffer, pH 7.4, with 2% Triton X-100 and broken up by sonication on ice.
The homogenate and the cell supernatant were assayed for GlcNAc-α1,3-fucosyl transferase. Blind samples were carried out with recombinant baculovirus which codes for the tobacco-GlcNAc-transferase I (Strasser et al., 1999, Glycobiology, in the process of printing). […]

[3] = substrate: C[C@@H]1O[C@H](OP(=O)(O)OP(=O)(O)OC[C@H]2O[C@@H](n3cnc4c(=O)[nH]c(N)nc43)[C@H](O)[C@@H]2O)[C@@H](O)[C@H](O)[C@@H]1O; experiment: Assay for GlcNAc-α1,3-fucosyl transferase activity (GnGn peptide and GDP-L-[U-14C]-fucose); conditions: other: acceptor or donor substrate, unit inferred; pH 7.4; 27.0 °C
[4] = additive conc. 10 mM, recombinant transferase

## CC(=O)N[C@H]1C(O)O[C@H](CO)[C@@H](O[C@@H]2O[C@H](CO)[C@H](O)[C@H](O)[C@H]2O)[C@@H]1O (stereo partly shown) [Galβ-4GlcNAc]
[1]; recombinant transferase
  Rel. Activity: 0%

## [Cl][Cu][Cl] [CuCl2]
[1]; [4]
  Relative Activity (Acceptor: GnGn-peptide): 3%

## [Cl][Cd][Cl] [CdCl2]
[1]; additive conc. 10 mM, […]
  Relative Activity (Acceptor: GnGn-peptide): 44%

## [Cl][Ni][Cl] [NiCl2]
[1]; additive conc. 10 mM, […]
  Relative Activity (Acceptor: GnGn-peptide): 24%

## Galβ1-3GlcNAcβ1-3Galβ1-4Glc
[1]; recombinant transferase
  Rel. Activity: 0%

## [Cl-].[Cl-].[Mg+2] [MgCl2]
[1]; [4]
  Relative Activity (Acceptor: GnGn-peptide): 52%

## GlcNAcβ1-2Manα1-3[Manα1-3(Manα1-6)Manα1-6]Manβ1-4GlcNAcβ1-4GlcNAcβ1-Asn [M5Gn-Asn]
[1]
  Km: 230 µM
[1]; recombinant transferase
  Rel. Activity: 71%

## O=C(O)CN(CCN(CC(=O)O)CC(=O)O)CC(=O)O [EDTA]
[1]; [4]
  Relative Activity (Acceptor: GnGn-peptide): 18%

## Galβ1-3GlcNAc
[1]; recombinant transferase
  Rel. Activity: 0%

## [Cl][Mn][Cl] [MnCl2]
[1]; additive conc. 10 mM, […]
  Relative Activity (Acceptor: GnGn-peptide): 100%
[1]; result in words
  effect of addition of bivalent cations on activity of the recombinant transferase: enhances the activity

## [Cl-].[Cl-].[Zn+2] [ZnCl2]
[1]; [4]
  Relative Activity (Acceptor: GnGn-peptide): 0.6%

## [Cl-].[Cl-].[Co+2] [CoCl2]
[1]
  Relative Activity (Acceptor: GnGn-peptide): 35%

## GlcNAcβ1-2Manα1-3(GlcNAβ1-2Manα1-6)Manβ1-4GlcNAcβ1-4GlcNAcβ1-Asn [GnGn-peptide]
[1]
  Km: 190 µM
[1]; recombinant transferase
  Rel. Activity: 100%

## [Ca+2].[Cl-].[Cl-] [CaCl2]
[1]; additive conc. 10 mM, […]
  Relative Activity (Acceptor: GnGn-peptide): 82%

## GlcNAcβ1-2Manα1-3(GlcNAcβ1-2Manα1-6)Manβ1-4GlcNAcβ1-4(Fucα1-6)GlcNAcβ1-Asn [GnGnF^6-peptide]
[1]
  Km: 130 µM
[1]; recombinant transferase
  Rel. Activity: 87%

B1: recombinant GlcNAc-α1,3-fucosyl transferase (Vigna radiata var. radiata) (protein)
chain: MMGLLTNLRGSRTDGAQQDSLPVLAPGGNPKRKWSNLMPLVVALVVIAEIAFLGRLDMAKNAAMVDSLADFFYRSRAVVEGDDLGLGLVASDRNSESYSCEEWLEREDAVTYSRGFSKEPIFVSGADQEWKSCSVGCKFGFSGDRKPDAAFGLPQPSGTASILRSMESAEYYAENNIAMARRRGYNIVMTTSLSSDVPVGYFSWAEYDMMAPVQPKTEAALAAAFISNCGARNFRLQALEALEKSNIKIDSYGGCHRNRDGRVNKVEALKHYKFSLAFENSNEEDYVTEKFFQSLVAGTVPVVVGAPNIQDFAPSPGSILHIKEIEDVESVAKTMRYLAENPEAYNQSLRWKYEGPSDSFKALVDMAAVHSSCRLCIHLATVSREKEENNPSLKRRPCKCTRGPETVYHIYVRERGRFEMESIYLRSSNLTLNAVKAAVVLKFTSLNLVPVWKTERPEVIRGGSALKLYKIYPIGLTQRQALYTFSFKGDADFRSHLENNPCAKFEVIFV
[2]; Sf21 insect cells, homogenate and supernatant, at best
  enzyme activity of the cotransfected cells and their supernatant relative to negative controls: ≤ 30 ×
[2]; corrected for endogenous insect α1,6-fucosyl transferase activity
  increase in the GlcNAc-α1,3-fucosyl transferase coming from the recombinant baculoviruses: > 100 -fold
[3]
  Km: 110 µM
